Patent publication US11649235B2, “Pan-tropic entry inhibitors” (Emory University, priority 2018, dated 2023)
Where two headings read alike, the source gives them in different places.

What was measured:
HIV-1IIIB = assay: HIV MAGI assay, HIV-1IIIB; assay type: cell-based; conditions: for IC50 / IC90: Table 3
Method: (§1) HIV-1 and MAGI Tropism assays can be used to establish activity/cytotoxicity and synergy studies and ADME profiles of compounds are evaluated using in vitro assays such as CYP2D6/3A4 assays and metabolic stability in human and mouse liver microsomes (See Tables 2 and 3).

HIV-1BaL = assay: HIV MAGI assay, HIV-1BaL; assay type: cell-based; conditions: for IC50 / IC90: Table 3
Method: as §1

MAGI [1] = assay: Cytotoxicity in MAGI HIV-1IIIB assay; assay type: cell-based
Method: as §1

MAGI [2] = assay: Cytotoxicity in MAGI HIV-1BaL assay; assay type: cell-based
Method: as §1

CYP2D6 = CYP2D6 (Homo sapiens (Human), UniProt P10635); assay: Recombinant CYP inhibition assay (fluorometric), CYP2D6; assay type: in vitro ADME
CYP2D6, sequence (P10635 whole entry): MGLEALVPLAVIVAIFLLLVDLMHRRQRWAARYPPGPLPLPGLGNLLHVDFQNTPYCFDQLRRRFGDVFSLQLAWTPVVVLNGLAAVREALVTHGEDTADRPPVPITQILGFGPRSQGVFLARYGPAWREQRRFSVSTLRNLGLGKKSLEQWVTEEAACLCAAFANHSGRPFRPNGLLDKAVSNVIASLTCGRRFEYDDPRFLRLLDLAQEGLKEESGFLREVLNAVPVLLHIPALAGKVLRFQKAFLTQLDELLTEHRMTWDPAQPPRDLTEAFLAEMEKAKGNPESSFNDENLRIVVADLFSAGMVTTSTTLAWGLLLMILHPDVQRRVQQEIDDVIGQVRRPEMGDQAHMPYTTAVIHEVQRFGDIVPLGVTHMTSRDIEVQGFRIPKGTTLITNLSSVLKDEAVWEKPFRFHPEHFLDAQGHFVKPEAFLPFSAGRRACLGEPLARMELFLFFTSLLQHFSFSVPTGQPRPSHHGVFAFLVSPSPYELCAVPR
Description: (§2) Recombinant CYP Inhibition Assay: In a drug discovery program, a rapid screening for cyctochrome P450 (CYP450) inhibitors is a part of the existing standard for avoiding the development of drugs likely to give clinical pharmacokinetic drug-drug interactions and associated toxicities. A microtiter plate-based, direct fluorometric assay for the activities of the principal human drug-metabolizing enzymes, CYP2D6 and CYP3A4 can be used and these assays are rapid and compatible with existing high-throughput assay instrumentation.
(§3) Fluorometric Enzyme Inhibition Assays: Test compounds were dissolved in 100% organic solvent (CH3CN or DMSO) to make 30 mM stock solutions. […] A 100 mM potassium phosphate buffer was prepared and adjusted to pH 7.4. The 30 mM stock solution of test and control compounds (1 mM) were further diluted in phosphate buffer (100 mM, pH 7.4) to ensure the final organic solvent content was <0.2% in the reaction. In a separate falcon tube, a 2× enzyme/substrate (E/S) solution was prepared in phosphate buffer. The final concentration of CYP2D6 (Corning) and AMMC was 10 nM and 4 μM, and CYP3A4 (Corning) and BFC was 20 nM and 40 μM, respectively. In a separate falcon tube, a 2× NADPH regenerating system (NRS) was prepared in phosphate buffer. The final concentration for each component in the assay was as follows: • CYP2D6 assay=0.008 mM NADPH, 3.3 mM glucose 6-phosphate, 0.4 U of glucose-6-phosphate dehydrogenase/mL • CYP3A4 assay=2.45 mM NADPH, 24.7 mM glucose 6-phosphate, 1.25 U of glucose-6-phosphate dehydrogenase/mL
(§4) Both enzymatic assays were conducted in a 96-well microtiter plate (Black, Corning Costar) with a final volume of 100 μL. Preparation of the plate began with the addition of 74 μL of the E/S in the first well, and 50 μL to all subsequent wells (from 2-11). The test compounds (1 μL) were dissolved in the first well to give the first row a final volume of 75 μL. A 1:3 serial dilution of the test compound was conducted by removing 25 μL from the first well and diluting it with the second and so forth until the tenth row. Final concentrations yielded a range from 300 μM-0.01 μM. Well 11 contained no enzyme, and well 12 contained no inhibitor. Both were used as controls for background fluorescence. The plate was incubated for 10 min at 37° C. for CYP2D6, and 30 mins for CYP3A4. After incubation, the reaction was initiated by the addition of 50 μL of the 2× NRS to each well.
(§5) Immediately (within 1 min) the fluorescence was measured using a microplate reader (KC4, BioTek). CYP2D6 was monitored at Ex/Em=410/460 nm, and CYP3A4 monitored at Ex/Em=410/538 nm in kinetic mode that scanned every 5 min for 60 mins. Data was exported and corrected for background noise by subtracting the blank from the mean value of all other columns. […]

CYP3A4 = CYP3A4 (Homo sapiens (Human), UniProt P08684); assay: Recombinant CYP inhibition assay (fluorometric), CYP3A4; assay type: in vitro ADME
CYP3A4, sequence (P08684 whole entry): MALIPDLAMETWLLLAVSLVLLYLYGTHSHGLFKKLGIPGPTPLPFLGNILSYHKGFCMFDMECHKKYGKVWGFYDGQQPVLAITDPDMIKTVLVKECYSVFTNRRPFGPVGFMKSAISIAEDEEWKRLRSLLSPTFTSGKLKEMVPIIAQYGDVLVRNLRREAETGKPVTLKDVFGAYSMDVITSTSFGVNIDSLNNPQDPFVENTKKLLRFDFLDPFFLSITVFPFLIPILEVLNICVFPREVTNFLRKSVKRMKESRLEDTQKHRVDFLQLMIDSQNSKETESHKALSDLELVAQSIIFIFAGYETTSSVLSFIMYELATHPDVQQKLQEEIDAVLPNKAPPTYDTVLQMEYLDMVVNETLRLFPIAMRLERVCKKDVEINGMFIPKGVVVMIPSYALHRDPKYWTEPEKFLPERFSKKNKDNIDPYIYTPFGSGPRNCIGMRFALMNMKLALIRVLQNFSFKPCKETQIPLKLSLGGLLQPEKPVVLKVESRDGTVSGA
Description: as §2, §3, §4, §5

[3] = both, 3 μM, pH 7.4
Method: Human Liver Microsomes: Pooled mixed gender human liver microsomes at a concentration of 20 mg/mL were purchased from XenoTech (Kansas City, Kans.). The vials of microsomes were stored at −80° C. and thawed on ice before each experiment. The microsomes were diluted to 1 mg/mL with 100 mM potassium phosphate buffer (pH 7.4).
Experimental Conditions: Test compounds were weighed and dissolved in 100% acetonitrile to make 2 mM stock solutions. […] The 2 mM stock solution of test and control compounds were further diluted in sodium phosphate buffer (100 mM, pH 7.4) to 50 μM to ensure the acetonitrile content was <0.2%.
The liver microsome assay was prepared in a 1.5 mL Eppendorf tube (Fisher Scientific) with a final volume of 1100 μL. Each reaction contained sodium phosphate buffer, liver microsomes (1 mg/mL), and test compound resulting in a final concentration of 3 μM. Following a 5 min pre-incubation of drug and microsomes in a 37° C. shaking incubator, the reaction was initiated with NADPH (110 μL). Aliquots (100 μL) were removed in duplicate at 0, 5, 10, 15, and […] and quenched in cold acetonitrile (200 μL). The aliquots were centrifuged at 12,000 g for 5 min and the supernatant removed and placed in an LCMS vial. […] A no NADPH negative control with test and control compound was conducted in singlet (150 μL) at the longest time point. Controls were processed and analyzed like test compounds.
An Agilent Technologies LCMS system consisting of an Agilent 6120 quadrupole mass spectrometer equipped with an Agilent 1200 binary pump, degasser, and auto sampler (Santa Clara, Calif.). The analytical column used for analysis was an XDB-Eclipse Plus C18 column (4.6 mm×150 mm column; Agilent Technologies). The mobile phase for the HPLC was 50 mM ammonium formate buffer, pH 3.5 (A) and acetonitrile (B). The samples were analyzed using the following 8-minute method: A linear gradient from 10% B to 95% B over for 5 minutes, with a 3 min hold at 95%. An equilibration at 10% B for 5 min was conducted after each run. Sample injection volume was 10 μL and the flow rate was 1.0 mL/min. Single ion monitoring of the mass in positive mode was conducted the molecular weight for each compound. Each time point was assessed on the LCMS and the area, based on the extracted ion, was manually integrated.
Calculations: The depletion of the compound was monitored as a function of time, and the area under the curve was manually integrated. The relative percent remaining was calculated using: Relative % remaining=AreaTime/AreaTime=0*100. The relative percentages for the duplicate runs were averaged and the standard deviations were calculated. Metabolism data averaged duplicates.

[4] = Mouse liver microsomes assay; assay type: in vitro ADME; conditions: for Relative % remaining, mouse liver microsomes: 3 μM compound, 1 mg/mL microsomes
Method: Controls were processed and analyzed like test compounds. […] The relative percent remaining was calculated using: Relative % remaining=[…]=0*100. […] Metabolism data averaged duplicates.

[5] = Human immunodeficiency virus 1, MAGI

Row | SMILES | IC50 (HIV-1IIIB; [5]) [µM] | IC90 (HIV-1IIIB; [5]) [µM] | IC50 (HIV-1BaL; [5]) [nM] | IC90 (HIV-1BaL; [5]) [µM] | MAGI HIV-1IIIB TC50 (MAGI [1]; Table 3) [µM] | MAGI HIV-1BaL TC90 (MAGI [2]; Table 3, head prints TC90) [µM] | also measured
1 | NCCCCN(CC1NC[C@@H]2CC[C@H]1N2CC[C@H](NC(=O)C1CCC(F)(F)CC1)c1ccccc1)[C@H]1CCCc2cccnc21 (single isomer, unassigned) [LRf isomer 95] |  |  |  |  |  |  | IC50 (HIV-1IIIB): > 10 µM; IC90 (HIV-1IIIB): > 10 µM; IC50 (HIV-1BaL): 9360 nM; IC90 (HIV-1BaL): > 100 µM; MAGI HIV-1IIIB TC50 (MAGI [1]; human): >10.0 µM; MAGI HIV-1BaL TC90 (MAGI [2]; human): >100 µM
2 | NCCCCN(CC1NC[C@@H]2CC[C@H]1N2CC[C@H](NC(=O)C1CCC(F)(F)CC1)c1ccccc1)[C@H]1CCCc2cccnc21 (single isomer, unassigned) [URf isomer 95] |  |  |  |  |  |  | IC50 (HIV-1IIIB): 0.17 µM; IC90 (HIV-1IIIB): 0.9 µM; IC50 (HIV-1BaL): 820 nM; IC90 (HIV-1BaL): 8.96 µM; MAGI HIV-1IIIB TC50 (MAGI [1]; human): >10.0 µM; MAGI HIV-1BaL TC90 (MAGI [2]; human): >100 µM
3 | NCCCCN(Cc1nc2ccccc2[nH]1)[C@H]1CCCc2cccnc21 [AMD11070, reference compound] |  |  |  |  |  |  | inhibition at 60 min, 1 µM (CYP2D6; human, recombinant CYP2D6, pH 7.4, probe AMMC (4 μM), at 1 μM, read-out: Inhibition of P450 2D6): 100%; Inhibition of P450 3A4 (CYP3A4; at 1 μM): 35%
4 | NCCCCN(C[C@@H]1CN(CC[C@H](NC(=O)C2CCC(F)(F)CC2)c2ccccc2)CCN1)[C@H]1CCCc2cccnc21 [Compound 1] |  |  |  |  |  |  | EC50 (HIV-1IIIB; Human immunodeficiency virus 1, MAGI, Table 1, read-out: HIV MAGI EC50 HIVIIIB): 220 nM; EC50 (HIV-1BaL; Human immunodeficiency virus 1, MAGI, Table 1, read-out: HIV MAGI EC50 HIVBa-L): 2600 nM; IC50 (CYP2D6; Table 1): > 20 µM; IC50 (CYP3A4; Table 1): > 20 µM; Relative % remaining, human liver microsomes ([3]; 10 min): 58 ± 4.9%; Relative % remaining, human liver microsomes ([3]; 0.5 h): 25 ± 0.1%; HLM ([3]; human, microsomes, 10 min): 58% @ 10 min; Relative % remaining, mouse liver microsomes ([4]; 10 min): 116 ± 3.1%; Relative % remaining, mouse liver microsomes ([4]; 30 min): 93 ± 8.9%; MLM ([4]; @ 10 min, Table 1): 100% @ 10 min
5 | NCCCCN(C[C@H]1CN(CC[C@H](NC(=O)C2CCC(F)(F)CC2)c2ccccc2)CCN1Cc1cncs1)[C@H]1CCCc2cccnc21 [Compound 66] | 12.4 | 65.8 | 330 | 4.38 | >100 | >100 | 
6 | NCCCCN(C[C@H]1CN(CC[C@H](NC(=O)C2CCC(F)(F)CC2)c2ccccc2)CCN1Cc1cnco1)[C@H]1CCCc2cccnc21 [Compound 67] | 3.19 | 44.6 | 2330 | 36.7 | >100 | >100 | 
7 | CN1CCN(CC[C@H](NC(=O)C2CCC(F)(F)CC2)c2ccccc2)C[C@@H]1CN(CCCCN)[C@H]1CCCc2cccnc21 [Compound 68] | 10.2 | 70.2 | 4160 | 66.8 | >100 | >100 | 
8 | NCCCCN(C[C@H]1CN(CC[C@H](NC(=O)C2CCC(F)(F)CC2)c2ccccc2)CCN1CC1COC1)[C@H]1CCCc2cccnc21 [Compound 75, N—((S)-3-((R)-3-(((4-aminobutyl)((S)-5,6,7,8-tetrahydroquinolin-8-yl)amino)methyl)-4-(oxetan-3-ylmethyl)piperazin-1-yl)-1-phenylpropyl)-4,4-difluorocyclohexane-1-carboxamide] | 6.61 | 68.5 | 2510 | 97.1 | >100 | >100 | 
9 | NCCCCN(C[C@H]1CN(CC[C@H](NC(=O)C2CCC(F)(F)CC2)c2ccccc2)CCN1Cc1cnc[nH]1)[C@H]1CCCc2cccnc21 [Compound 77, N—((S)-3-((R)-4-((1H-imidazol-5-yl)methyl)-3-(((4-aminobutyl)((S)-5,6,7,8-tetrahydroquinolin-8-yl)amino)methyl)piperazin-1-yl)-1-phenylpropyl)-4,4-difluorocyclohexane-1-carboxamide] | 0.002 | 0.009 | 1540 | 23 | >100 | >100 | 
10 | Cn1cncc1CN1CCN(CC[C@H](NC(=O)C2CCC(F)(F)CC2)c2ccccc2)C[C@@H]1CN(CCCCN)[C@H]1CCCc2cccnc21 [Compound 79, N—((S)-3-((R)-3-(((4-aminobutyl)((S)-5,6,7,8-tetrahydroquinolin-8-yl)amino)methyl)-4-((1-methyl-1H-imidazol-5-yl)methyl)piperazin-1-yl)-1-phenylpropyl)-4,4-difluorocyclohexane-1-carboxamide] | 2.58 | 36.5 | 660 | 7.35 | >100 | >100 | 
11 | NCCCCN(C[C@H]1CN(CC[C@H](NC(=O)C2CCC(F)(F)CC2)c2ccccc2)CCN1Cc1ccncc1)[C@H]1CCCc2cccnc21 [Compound 81, N—((S)-3-((R)-3-(((4-aminobutyl)((S)-5,6,7,8-tetrahydroquinolin-8-yl)amino)methyl)-4-(pyridin-4-ylmethyl)piperazin-1-yl)-1-phenylpropyl)-4,4-difluorocyclohexane-1-carboxamide] | 3.49 | 52.7 | 950 | 22.7 | >100 | >100 | 
